# According to publication PMC3433743 (Bioorganic & medicinal chemistry letters, 2012):
# Entries after “also recorded” stand apart in the source; their conditions may differ. Read-outs that look alike come from different tables or passages of the source.
# Tests used:
# [1] = cited from earlier work
# LRRK2[A2016T] = LRRK2[A2016T] (Homo sapiens, UniProt Q5S007, A2016T); assay: LRRK2 enzymatic assay, A2016T mutant; conditions: biochemical, Fig. 1
# CAMKKβ = CAMKKβ (Homo sapiens, UniProt Q96RR4); assay: Radioactivity-based enzymatic kinase panel; conditions: read-out: Inhibition of kinase activity
# GFP-LRRK2[A2016T] = GFP-LRRK2[A2016T] (Homo sapiens, UniProt Q5S007, A2016T); type: cell-based; conditions: HEK293, LRRK2[A2016T], 90 min
# TSSK1 = target: T1, TSSK1 (Homo sapiens, UniProt Q9BXA7); assay: Radioactivity-based enzymatic kinase panel; conditions: read-out: Inhibition of kinase activity
# T1 sequence (Q9BXA7 1-367): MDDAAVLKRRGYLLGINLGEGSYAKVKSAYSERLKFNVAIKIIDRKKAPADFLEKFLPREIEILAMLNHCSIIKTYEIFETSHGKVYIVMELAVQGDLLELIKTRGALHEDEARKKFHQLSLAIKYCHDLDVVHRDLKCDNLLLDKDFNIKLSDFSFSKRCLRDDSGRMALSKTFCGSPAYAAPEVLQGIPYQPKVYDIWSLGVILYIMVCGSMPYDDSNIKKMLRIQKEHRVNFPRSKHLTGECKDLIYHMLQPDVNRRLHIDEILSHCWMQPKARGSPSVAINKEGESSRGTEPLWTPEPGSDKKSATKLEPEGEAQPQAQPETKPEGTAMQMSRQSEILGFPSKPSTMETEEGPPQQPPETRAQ
# PHKã1(PBK) = PHKã1(PBK) (Homo sapiens, UniProt Q16816); assay: Radioactivity-based enzymatic kinase panel; conditions: read-out: Inhibition of kinase activity
# NUAK1 = target: T2, NUAK1 (Homo sapiens, UniProt O60285); assay: Radioactivity-based enzymatic kinase panel; conditions: read-out: Inhibition of kinase activity
# T2 sequence (O60285 1-661): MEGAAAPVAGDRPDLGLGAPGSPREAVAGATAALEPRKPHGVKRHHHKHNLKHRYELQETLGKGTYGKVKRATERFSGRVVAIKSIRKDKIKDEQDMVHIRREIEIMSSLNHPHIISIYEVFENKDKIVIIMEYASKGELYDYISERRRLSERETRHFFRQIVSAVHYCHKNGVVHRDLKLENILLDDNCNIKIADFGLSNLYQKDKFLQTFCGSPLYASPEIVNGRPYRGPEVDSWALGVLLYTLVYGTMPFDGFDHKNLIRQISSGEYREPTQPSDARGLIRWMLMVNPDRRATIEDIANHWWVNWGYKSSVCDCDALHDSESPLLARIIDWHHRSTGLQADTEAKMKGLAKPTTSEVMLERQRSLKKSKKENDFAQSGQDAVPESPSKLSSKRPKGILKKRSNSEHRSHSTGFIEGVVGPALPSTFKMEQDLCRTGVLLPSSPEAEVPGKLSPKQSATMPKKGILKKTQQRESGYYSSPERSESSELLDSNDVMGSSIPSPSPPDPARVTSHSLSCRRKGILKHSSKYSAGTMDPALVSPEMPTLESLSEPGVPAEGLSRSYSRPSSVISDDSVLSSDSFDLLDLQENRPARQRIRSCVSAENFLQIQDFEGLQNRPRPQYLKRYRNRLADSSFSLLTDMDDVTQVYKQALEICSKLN
# CHK2 = CHK2 (Homo sapiens, UniProt O96017); assay: Radioactivity-based enzymatic kinase panel; conditions: read-out: Inhibition of kinase activity
# endogenous LRRK2 = endogenous LRRK2 (Mus musculus, UniProt Q5S006); type: in vivo
# Chain of endogenous LRRK2 (Q5S006 whole entry): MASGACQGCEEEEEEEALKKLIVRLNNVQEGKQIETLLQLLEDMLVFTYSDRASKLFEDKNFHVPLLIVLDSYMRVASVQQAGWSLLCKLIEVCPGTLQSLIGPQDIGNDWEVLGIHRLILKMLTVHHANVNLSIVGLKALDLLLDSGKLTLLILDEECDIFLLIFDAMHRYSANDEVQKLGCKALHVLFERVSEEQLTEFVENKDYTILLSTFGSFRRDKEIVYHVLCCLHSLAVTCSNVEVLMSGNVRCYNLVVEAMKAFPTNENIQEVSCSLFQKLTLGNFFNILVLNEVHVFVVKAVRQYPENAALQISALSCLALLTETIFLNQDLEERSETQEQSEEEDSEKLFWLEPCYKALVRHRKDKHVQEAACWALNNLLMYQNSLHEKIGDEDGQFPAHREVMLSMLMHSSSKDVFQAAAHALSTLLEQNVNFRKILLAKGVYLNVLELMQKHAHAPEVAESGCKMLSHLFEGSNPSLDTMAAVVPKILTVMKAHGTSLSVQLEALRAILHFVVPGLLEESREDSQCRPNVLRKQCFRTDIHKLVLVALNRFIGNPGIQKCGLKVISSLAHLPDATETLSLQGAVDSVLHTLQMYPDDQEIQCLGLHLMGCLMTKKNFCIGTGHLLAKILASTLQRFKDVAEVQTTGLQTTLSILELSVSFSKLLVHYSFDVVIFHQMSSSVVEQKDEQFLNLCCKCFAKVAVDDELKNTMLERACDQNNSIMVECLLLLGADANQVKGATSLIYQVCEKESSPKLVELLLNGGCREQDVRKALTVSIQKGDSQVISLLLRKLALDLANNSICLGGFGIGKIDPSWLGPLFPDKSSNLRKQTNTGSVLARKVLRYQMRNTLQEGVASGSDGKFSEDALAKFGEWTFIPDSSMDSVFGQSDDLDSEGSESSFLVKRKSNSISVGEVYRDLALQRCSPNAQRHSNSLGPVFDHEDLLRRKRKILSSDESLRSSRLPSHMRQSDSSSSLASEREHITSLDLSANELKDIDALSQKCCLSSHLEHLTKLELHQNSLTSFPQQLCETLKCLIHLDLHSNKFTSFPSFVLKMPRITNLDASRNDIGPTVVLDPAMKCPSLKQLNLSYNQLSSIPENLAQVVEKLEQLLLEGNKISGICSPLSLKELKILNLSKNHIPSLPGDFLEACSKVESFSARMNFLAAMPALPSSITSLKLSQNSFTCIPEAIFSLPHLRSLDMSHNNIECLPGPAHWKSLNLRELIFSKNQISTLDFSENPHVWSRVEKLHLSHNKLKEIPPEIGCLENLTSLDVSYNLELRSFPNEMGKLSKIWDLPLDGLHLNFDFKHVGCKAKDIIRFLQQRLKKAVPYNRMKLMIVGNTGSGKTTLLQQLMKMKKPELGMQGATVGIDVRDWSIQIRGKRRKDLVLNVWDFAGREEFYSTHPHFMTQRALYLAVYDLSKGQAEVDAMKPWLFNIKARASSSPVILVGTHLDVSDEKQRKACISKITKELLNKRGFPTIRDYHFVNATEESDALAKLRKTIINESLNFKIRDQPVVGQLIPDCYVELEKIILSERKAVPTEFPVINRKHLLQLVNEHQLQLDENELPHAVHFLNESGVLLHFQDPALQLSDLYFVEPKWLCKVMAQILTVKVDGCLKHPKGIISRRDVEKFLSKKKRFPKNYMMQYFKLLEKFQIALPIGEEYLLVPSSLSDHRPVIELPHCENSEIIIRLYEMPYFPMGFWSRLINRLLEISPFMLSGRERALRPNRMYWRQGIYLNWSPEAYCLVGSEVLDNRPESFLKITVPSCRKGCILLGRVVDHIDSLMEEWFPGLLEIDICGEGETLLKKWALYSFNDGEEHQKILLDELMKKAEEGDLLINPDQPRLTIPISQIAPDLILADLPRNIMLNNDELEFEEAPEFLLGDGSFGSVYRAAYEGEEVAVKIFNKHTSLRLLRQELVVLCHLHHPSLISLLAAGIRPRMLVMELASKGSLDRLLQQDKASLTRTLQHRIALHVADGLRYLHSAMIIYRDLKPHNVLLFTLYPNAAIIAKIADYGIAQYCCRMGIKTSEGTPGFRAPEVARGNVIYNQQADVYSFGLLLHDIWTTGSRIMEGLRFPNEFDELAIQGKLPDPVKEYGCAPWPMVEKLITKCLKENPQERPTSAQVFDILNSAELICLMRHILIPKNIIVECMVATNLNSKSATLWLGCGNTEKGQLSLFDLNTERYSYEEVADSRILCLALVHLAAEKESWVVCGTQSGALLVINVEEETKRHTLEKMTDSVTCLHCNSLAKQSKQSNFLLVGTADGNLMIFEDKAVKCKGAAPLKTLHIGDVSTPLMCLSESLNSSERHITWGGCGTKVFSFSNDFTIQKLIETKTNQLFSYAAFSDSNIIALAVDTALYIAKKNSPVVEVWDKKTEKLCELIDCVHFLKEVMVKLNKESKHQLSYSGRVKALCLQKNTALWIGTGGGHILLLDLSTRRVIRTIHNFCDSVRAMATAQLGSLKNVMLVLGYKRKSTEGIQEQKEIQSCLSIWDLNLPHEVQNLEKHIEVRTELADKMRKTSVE
# Chain of LRRK2[A2016T] (Q5S007 whole entry A2016T): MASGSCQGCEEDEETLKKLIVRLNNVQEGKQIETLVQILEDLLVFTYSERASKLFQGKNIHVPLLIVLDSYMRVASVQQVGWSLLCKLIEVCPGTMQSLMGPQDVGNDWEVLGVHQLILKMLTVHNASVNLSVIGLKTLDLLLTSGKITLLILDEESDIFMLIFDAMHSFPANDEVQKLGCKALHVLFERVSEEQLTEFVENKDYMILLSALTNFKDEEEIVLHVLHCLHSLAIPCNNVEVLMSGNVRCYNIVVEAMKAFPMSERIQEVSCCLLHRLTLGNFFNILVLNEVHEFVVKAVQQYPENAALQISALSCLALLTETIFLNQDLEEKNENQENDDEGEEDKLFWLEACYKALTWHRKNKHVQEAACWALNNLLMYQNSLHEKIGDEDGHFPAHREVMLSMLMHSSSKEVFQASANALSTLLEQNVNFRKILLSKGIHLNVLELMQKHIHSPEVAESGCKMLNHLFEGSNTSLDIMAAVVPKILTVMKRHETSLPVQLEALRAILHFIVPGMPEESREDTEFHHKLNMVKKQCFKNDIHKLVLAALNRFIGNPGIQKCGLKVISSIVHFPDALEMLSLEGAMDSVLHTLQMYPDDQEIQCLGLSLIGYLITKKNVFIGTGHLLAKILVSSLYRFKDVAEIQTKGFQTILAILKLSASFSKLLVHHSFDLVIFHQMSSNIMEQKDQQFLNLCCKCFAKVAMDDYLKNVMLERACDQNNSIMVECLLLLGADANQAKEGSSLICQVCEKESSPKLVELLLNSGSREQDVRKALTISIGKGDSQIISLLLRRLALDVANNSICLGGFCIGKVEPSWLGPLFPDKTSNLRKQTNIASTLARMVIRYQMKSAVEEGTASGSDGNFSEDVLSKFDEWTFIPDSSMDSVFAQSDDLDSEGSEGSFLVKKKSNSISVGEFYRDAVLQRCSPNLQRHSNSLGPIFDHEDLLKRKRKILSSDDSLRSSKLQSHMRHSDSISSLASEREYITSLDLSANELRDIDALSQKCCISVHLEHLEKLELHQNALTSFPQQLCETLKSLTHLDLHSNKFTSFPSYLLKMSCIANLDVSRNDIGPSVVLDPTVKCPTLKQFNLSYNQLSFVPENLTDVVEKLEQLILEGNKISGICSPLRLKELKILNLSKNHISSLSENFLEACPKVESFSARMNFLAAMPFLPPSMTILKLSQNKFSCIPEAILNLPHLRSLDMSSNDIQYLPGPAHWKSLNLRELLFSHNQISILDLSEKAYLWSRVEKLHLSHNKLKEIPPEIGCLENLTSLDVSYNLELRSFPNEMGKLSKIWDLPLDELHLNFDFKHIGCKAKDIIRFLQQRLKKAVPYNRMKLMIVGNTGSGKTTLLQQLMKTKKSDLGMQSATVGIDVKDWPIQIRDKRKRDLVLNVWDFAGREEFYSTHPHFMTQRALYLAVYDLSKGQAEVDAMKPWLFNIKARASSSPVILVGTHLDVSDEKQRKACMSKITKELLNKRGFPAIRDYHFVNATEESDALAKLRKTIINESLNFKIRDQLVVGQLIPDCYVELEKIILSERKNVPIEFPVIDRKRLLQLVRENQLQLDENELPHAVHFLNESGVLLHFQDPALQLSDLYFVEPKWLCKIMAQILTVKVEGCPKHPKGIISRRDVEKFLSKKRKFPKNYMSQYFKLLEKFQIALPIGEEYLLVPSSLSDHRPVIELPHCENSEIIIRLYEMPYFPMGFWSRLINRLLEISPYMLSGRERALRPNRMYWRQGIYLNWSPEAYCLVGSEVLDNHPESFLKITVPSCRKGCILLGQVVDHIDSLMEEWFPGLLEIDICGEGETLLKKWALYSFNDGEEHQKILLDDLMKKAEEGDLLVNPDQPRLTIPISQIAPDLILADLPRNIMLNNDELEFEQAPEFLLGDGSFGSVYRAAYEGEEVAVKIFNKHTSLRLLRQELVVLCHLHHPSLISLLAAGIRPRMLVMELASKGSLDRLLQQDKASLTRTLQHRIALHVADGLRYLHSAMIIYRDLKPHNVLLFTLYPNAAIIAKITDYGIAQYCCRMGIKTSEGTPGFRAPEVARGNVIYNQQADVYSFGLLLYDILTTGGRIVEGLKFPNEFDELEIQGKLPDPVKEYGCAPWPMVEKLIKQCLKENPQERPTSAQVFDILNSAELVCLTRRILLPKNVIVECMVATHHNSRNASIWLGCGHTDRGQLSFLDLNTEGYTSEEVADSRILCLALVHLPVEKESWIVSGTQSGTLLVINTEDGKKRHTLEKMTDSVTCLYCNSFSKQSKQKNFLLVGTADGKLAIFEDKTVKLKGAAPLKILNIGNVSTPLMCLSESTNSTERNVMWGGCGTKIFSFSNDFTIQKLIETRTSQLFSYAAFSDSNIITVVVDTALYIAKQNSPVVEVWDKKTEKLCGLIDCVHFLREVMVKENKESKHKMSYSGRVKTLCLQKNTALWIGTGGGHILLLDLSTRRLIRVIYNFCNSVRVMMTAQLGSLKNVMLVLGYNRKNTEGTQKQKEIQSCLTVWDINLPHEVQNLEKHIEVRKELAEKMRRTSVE
# Chain of GFP-LRRK2[A2016T] (Q5S007 whole entry A2016T): as above
Compound,Exposure in mouse brains [1],Inhibition of the A2016T mutant (LRRK2[A2016T]),inhibition at 1 µM (CAMKKβ) [%],Concentration inducing dephosphorylation of Ser910 and 935 (GFP-LRRK2[A2016T]) [µM],inhibition at 1 µM (TSSK1) [%],inhibition at 1 µM (PHKã1(PBK)) [%],inhibition at 1 µM (NUAK1) [%],inhibition at 1 µM (CHK2) [%],"Ser910 and Ser935 dephosphorylation of LRRK2 in kidney and spleen (endogenous LRRK2; oral gavage 10 mg/kg, 10 mg/kg)",Ser910 and Ser935 dephosphorylation of LRRK2 in kidney and spleen (endogenous LRRK2; oral gavage 50 mg/kg),Inhibition of LRRK2 Ser910 or Ser935 phosphorylation in the brain (endogenous LRRK2; oral gavage 10 or 50 mg/kg)
COc1cc(N2CCOCC2)ccc1Nc1ncc(F)c(Nc2ccccc2NS(C)(=O)=O)n1 [CZC-25146],neither compound is able to achieve good exposure in mouse brains,,,,,,,,,,
COc1cc(C(=O)N2CCC(N3CCN(C)CC3)CC2)ccc1Nc1ncc2c(n1)N(C)c1ccccc1C(=O)N2C [LRRK2-IN-1],neither compound is able to achieve good exposure in mouse brains,dramatic resistance,,,,,,,,,
"COc1cc(N2CCC(N3CCN(C)CC3)CC2)ccc1Nc1ncc(Cl)c(Nc2ccccc2S(=O)(=O)C(C)C)n1 [TAE684, 5-chloro-N4-(2-(isopropylsulfonyl)phenyl)-N2-(2-methoxy-4-(4-(4-methyl-piperazin-1-yl)piperidin-1-yl)phenyl)pyrimidine-2,4-diamine]",,relatively insensitive to the A2016T mutation; also recorded: maintains significant inhibition,> 90,1 to 3,> 90,> 90,> 90,> 90,slightly lower effect; also recorded: substantially inhibits,complete Ser910 and Ser935 dephosphorylation,no inhibition; also recorded: does not inhibit phosphorylation; also recorded: not in brain
